The results in this text go back to ChEMBL document CHEMBL5532698, “2,3-Dihydroquinazolin-4(1H)-ones and quinazolin-4(3H)-ones as broad-spectrum cytotoxic agents and their impact on tubulin polymerisation” (RSC Med Chem, 2024).

In series [1] the test system is HT-29. Nature of the series: Antiproliferative activity against human HT-29 cells assessed as cell growth inhibition at 25 uM incubated for 72 hrs by MTT assay relative to control. It counts as functional. On the technique in general: Formazan colour is commonly taken as a measure of viable cells.
Series [2] concerns U-87 MG. Nature of the series: Antiproliferative activity against human U87 cells assessed as cell growth inhibition at 25 uM incubated for 72 hrs by MTT assay relative to control. Type of series: functional, U-87MG ATCC.
The subject of series [3] is MCF7. As to the kind of experiment: Antiproliferative activity against human MCF7 cells assessed as cell growth inhibition at 25 uM incubated for 72 hrs by MTT assay relative to control. Type of series: functional.
Series [4] concerns A2780. Nature of the series: Antiproliferative activity against human A2780 cells assessed as cell growth inhibition at 25 uM incubated for 72 hrs by MTT assay relative to control. It counts as functional.
Series [5] relates to NCI-H460. As to the kind of experiment: Antiproliferative activity against human NCI-H460 cells assessed as cell growth inhibition at 25 uM incubated for 72 hrs by MTT assay relative to control. Type of series: functional.
The subject of series [6] is A-431. Nature of the series: Antiproliferative activity against human A-431 cells assessed as cell growth inhibition at 25 uM incubated for 72 hrs by MTT assay relative to control. Type of series: functional.
In series [7] the test system is DU-145. Nature of the series: Antiproliferative activity against human DU-145 cells assessed as cell growth inhibition at 25 uM incubated for 72 hrs by MTT assay relative to control. It counts as functional.
Series [8] relates to BE(2)-C. As to the kind of experiment: Antiproliferative activity against human BE2C cells assessed as cell growth inhibition at 25 uM incubated for 72 hrs by MTT assay relative to control. It counts as functional.
Series [9] in a line: Antiproliferative activity against human SJG2 cells assessed as cell growth inhibition at 25 uM incubated for 72 hrs by MTT assay relative to control. It counts as functional. To be noted: SJ-G2.
Series [10] has as its system MIA PaCa-2. Nature of the series: Antiproliferative activity against human MIA PaCa-2 cells assessed as cell growth inhibition at 25 uM incubated for 72 hrs by MTT assay relative to control. Type of series: functional.
Series [11] is described as follows: Cytotoxicity against human MCF-10A cells assessed as cell growth inhibition at 25 uM incubated for 72 hrs by MTT assay relative to control. It counts as toxicity, cell-based.

What is called inhibition is the relative decrease from the control value, in per cent. Take `CCCCC1NC(=O)c2ccccc2N1` (configuration not stated): the inhibition at 25 µM was 32% in series [1]; 9% in series [2]; 25% in series [3]; 59% in series [4]; less than 10% in [5]; 30% in [6]. Further, the inhibition at 25 µM in series [7] is 25%; in series [8], 38%; in series [9], less than 10%; in series [10], 16%. Moreover, the inhibition at 72 h, 25 µM in series [11] came to 13%.
As to `O=C1NC(C2CCCCC2)Nc2ccccc21` (configuration not stated), the inhibition at 25 µM in [1] is 23%; in series [2], 10%; in [3], 18%; in series [4], 41%; in series [5], less than 10%; in series [6] it was 22%. Besides, the inhibition at 25 µM is 18% in series [7], 32% in series [8], less than 10% in series [9] and 12% in series [10]. Moreover, the inhibition at 72 h, 25 µM in series [11] amounted to 8%.
As to `Oc1nc(-c2ccncc2)nc2ccccc12`, the inhibition at 25 µM in series [1] is 11%; in series [2] it was less than 10%; in series [3], less than 10%; in series [4] it was less than 10%; in series [5] it was 15%; in [6], less than 10%. In addition, the inhibition at 25 µM is less than 10% in [7], less than 10% in series [8], less than 10% in [9] and 10% in series [10]. Also, the inhibition at 72 h, 25 µM in series [11] was less than 10%.
Consider `O=c1[nH]c(-c2ccccc2Br)nc2ccccc12`, for which the inhibition at 25 µM in series [1] was determined as 15%; in series [2] it was 14%; in [3], 10%; in series [4], 13%; in series [5], 20%; in series [6] it was 12%. The inhibition at 25 µM in series [7] stood at 25%; in series [8], 23%; in [9], 11%; in series [10], 24%. Further, the inhibition at 72 h, 25 µM in [11] was 17%.
As for `O=C1NC(c2ccc(Br)o2)Nc2ccccc21` (configuration not stated), the inhibition at 25 µM in series [1] is less than 10%; in series [2] it was less than 10%; in series [3], 13%; in series [4], 37%; in [5], less than 10%; in [6] it was less than 10%. Moreover, the inhibition at 25 µM in series [7] is less than 10%; in series [8] it was 20%; in series [9] it was 12%; in series [10] it was less than 10%. In addition, the inhibition at 72 h, 25 µM in series [11] was less than 10%.
With `O=C1NC(c2cccnc2)Nc2ccccc21` (configuration not stated), the inhibition at 25 µM was less than 10% in series [1]; less than 10% in series [2]; 21% in series [3]; less than 10% in [4]; less than 10% in [5]; less than 10% in series [6]. The inhibition at 25 µM in series [7] was less than 10%; in series [8], less than 10%; in series [9], less than 10%; in [10], 11%. Besides, the inhibition at 72 h, 25 µM in series [11] is less than 10%.
For `CCCC/C=C/c1nc2ccccc2c(=O)[nH]1`, the inhibition at 25 µM is less than 10% in series [1]; 25% in [2]; 16% in series [3]; 43% in series [4]; 33% in series [5]; 22% in series [6]. Also, the inhibition at 25 µM was 26% in series [7], less than 10% in [8], 16% in series [9] and 18% in [10]. Also, in series [11], the inhibition at 72 h, 25 µM amounted to 11%.
